How the values were obtained:
Format in all cases: cell-based
[1] = test system: KG-1 (human acute myeloid leukaemia); assay: In vitro cytotoxicity, MTT assay, KG-1; settings: for IC50: Homo sapiens, 72 h with compound, MTT, n/a = non-active compound; for KG-1 SI: selectivity coefficient vs normal BALB/3T3 cells
A375 (human melanoma) = assay: In vitro cytotoxicity, SRB assay, A375; settings: for IC50: Homo sapiens, A-375, 72 h with compound, SRB, n/a = non-active compound, read-out: A375 IC50; for A375 SI: selectivity coefficient vs normal BALB/3T3 cells
[2] = test system: NCI-H23 (human lung cancer); assay: In vitro cytotoxicity, SRB assay, NCI-H23; settings: for IC50: Homo sapiens, NCI-H23, 72 h with compound, SRB, n/a = non-active compound, read-out: NCI-H23 IC50; for NCI-H23 SI: selectivity coefficient vs normal BALB/3T3 cells
[3] = test system: PFSK-1 (malignant primitive neuroectodermal tumour); assay: In vitro cytotoxicity, SRB assay, PFSK-1; settings: for IC50: Homo sapiens, PFSK-1, 72 h with compound, SRB, n/a = non-active compound, read-out: PFSK-1 IC50; for PFSK-1 SI: selectivity coefficient vs normal BALB/3T3 cells
[4] = test system: BALB/3T3 (normal mouse fibroblasts); assay: In vitro cytotoxicity, SRB assay, normal BALB/3T3 fibroblasts; settings: Mus musculus, BALB/3T3; normal cells; 72 h with compound, SRB; n/a = non-active compound; read-out: BALB/3T3 IC50
[5] = test system: MIA PaCa-2 (human pancreatic cancer); assay: cells; settings: for IC50: Homo sapiens, MIA PaCa-2, 72 h with compound, SRB, n/a = non-active compound, read-out: MIA PaCa-2 IC50; for MIA PaCa-2 SI: selectivity coefficient vs normal BALB/3T3 cells
[6] = test system: PLC/PRF/5 (human liver cancer); assay: cells; settings: for IC50: Homo sapiens, PLC-PRF-5, 72 h with compound, SRB, n/a = non-active compound, read-out: PLC/PRF/5 IC50; for PLC/PRF/5 SI: selectivity coefficient vs normal BALB/3T3 cells
Hs294T (human melanoma) = assay: cells; settings: for IC50: Homo sapiens, Hs 294T, 72 h with compound, SRB, n/a = non-active compound, read-out: Hs294T IC50; for Hs294T SI: selectivity coefficient vs normal BALB/3T3 cells
[7] = test system: SNU-16 (human gastric cancer); assay: cells; settings: for IC50: Homo sapiens, SNU-16, 72 h with compound, MTT, n/a = non-active compound, read-out: SNU-16 IC50; for SNU-16 SI: selectivity coefficient vs normal BALB/3T3 cells
[8] = test system: A2780Cis (cisplatin-resistant human ovarian cancer); assay: In vitro cytotoxicity, SRB assay, A2780Cis; settings: for IC50: Homo sapiens, A2780cis, 72 h, read-out: A2780Cis IC50 (nM)
[9] = test system: A2780 (human ovarian cancer); assay: In vitro cytotoxicity, SRB assay, A2780; settings: for IC50: Homo sapiens, A2780, 72 h with compound, SRB, n/a = non-active compound, read-out: A2780 IC50; for A2780 SI: selectivity coefficient vs normal BALB/3T3 cells

Compound	IC50 [1] [nM]	KG-1 SI [1]	IC50 (A375 (human melanoma)) [nM]	A375 SI (A375 (human melanoma))	IC50 [2] [nM]	NCI-H23 SI [2]	IC50 [3] [nM]	PFSK-1 SI [3]	IC50 [4] [nM]	IC50 [5] [nM]	MIA PaCa-2 SI [5]	IC50 [6] [nM]	PLC/PRF/5 SI [6]	IC50 [7] [nM]	SNU-16 SI [7]	A2780Cis RI [8]	A2780Cis SI [8]	IC50 [8] [nM]	IC50 [9] [nM]	A2780 SI [9]	also measured
CC[C@@H](C(=O)[C@@H](C)[C@@H](O)[C@H](C)[C@@H]1O[C@@H]([C@@H](CC)C(=O)O)CC[C@@H]1C)[C@H]1O[C@]2(C=C[C@@H](NC(=O)Nc3ccc(F)cc3)[C@]3(CC[C@@](C)([C@H]4CC[C@](O)(CC)[C@H](C)O4)O3)O2)[C@H](C)C[C@@H]1C [FLC-00363-1]	11.7	5.3	37.3	1.7	2.78	22.4	4.06	15.3	62.2	19.3	3.2	13	4.8	4.46	14.0	0.7	44.3	1.41	2	31.1	IC50 (Hs294T (human melanoma)): 27.3 nM; Hs294T SI (Hs294T (human melanoma)): 2.3
CCCCNC(=S)N[C@@H]1C=C[C@]2(O[C@H]([C@@H](CC)C(=O)[C@@H](C)[C@@H](O)[C@H](C)[C@@H]3O[C@@H]([C@@H](CC)C(=O)O)CC[C@@H]3C)[C@@H](C)C[C@H]2C)O[C@@]12CC[C@@](C)([C@H]1CC[C@](O)(CC)[C@H](C)O1)O2 [FLC-00368-1]	28.2	4.7	89.1	1.5	18.4	7.1	18.6	7.0	131	88.1	1.5	74.2	1.8	16	8.2	0.8	44.2	2.97	3.54	37.1	IC50 (Hs294T (human melanoma)): 152 nM; Hs294T SI (Hs294T (human melanoma)): 0.9
CC[C@@H](C(=O)[C@@H](C)[C@@H](O)[C@H](C)[C@@H]1O[C@@H]([C@@H](CC)C(=O)O)CC[C@@H]1C)[C@H]1O[C@]2(C=C[C@@H](NC(=O)NC3CCCCC3)[C@]3(CC[C@@](C)([C@H]4CC[C@](O)(CC)[C@H](C)O4)O3)O2)[C@H](C)C[C@@H]1C [FLC-00384-1]	19.7	5.3	120	0.9	27.7	3.8	10	10.5	105	62.6	1.7	28.2	3.7	21.1	5.0	0.3	80.0	1.31	4.04	25.9	IC50 (Hs294T (human melanoma)): 141 nM; Hs294T SI (Hs294T (human melanoma)): 0.7
CC[C@@H](C(=O)[C@@H](C)[C@@H](O)[C@H](C)[C@@H]1O[C@@H]([C@@H](CC)C(=O)O)CC[C@@H]1C)[C@H]1O[C@]2(C=C[C@@H](NC(=S)Nc3cc(C(F)(F)F)cc(C(F)(F)F)c3)[C@]3(CC[C@@](C)([C@H]4CC[C@](O)(CC)[C@H](C)O4)O3)O2)[C@H](C)C[C@@H]1C [FLC-00348-1]	188	15.0	2590	1.1	972	2.9	379	7.4	2830	2320	1.2	1150	2.5	537	5.3	0.8	60.6	46.6	57	49.6	IC50 (Hs294T (human melanoma)): 3320 nM; Hs294T SI (Hs294T (human melanoma)): 0.9
CC[C@@H](C(=O)[C@@H](C)[C@@H](O)[C@H](C)[C@@H]1O[C@@H]([C@@H](CC)C(=O)O)CC[C@@H]1C)[C@H]1O[C@]2(C=C[C@@H](NC(=S)NCC(C)C)[C@]3(CC[C@@](C)([C@H]4CC[C@](O)(CC)[C@H](C)O4)O3)O2)[C@H](C)C[C@@H]1C [FLC-00369-1]	11.7	7.1	49.6	1.7	5.98	13.8	5.84	14.1	82.3	44.7	1.8	12.4	6.6	16	5.1	0.4	44.8	1.84	5.08	16.2	IC50 (Hs294T (human melanoma)): 106 nM; Hs294T SI (Hs294T (human melanoma)): 0.8
CC[C@@H](C(=O)[C@@H](C)[C@@H](O)[C@H](C)[C@@H]1O[C@@H]([C@@H](CC)C(=O)O)CC[C@@H]1C)[C@H]1O[C@]2(C=C[C@@H](NC(=S)Nc3ccc(C)cc3)[C@]3(CC[C@@](C)([C@H]4CC[C@](O)(CC)[C@H](C)O4)O3)O2)[C@H](C)C[C@@H]1C [FLC-00382-1]	9.84	5.2	44.2	1.2	3.92	13.2	3.75	13.8	51.6	36.5	1.4	5.15	10.0	5.15	10.0	0.4	157.5	0.33	0.84	61.4	IC50 (Hs294T (human melanoma)): 61.1 nM; Hs294T SI (Hs294T (human melanoma)): 0.8
CCNC(=S)N[C@@H]1C=C[C@]2(O[C@H]([C@@H](CC)C(=O)[C@@H](C)[C@@H](O)[C@H](C)[C@@H]3O[C@@H]([C@@H](CC)C(=O)O)CC[C@@H]3C)[C@@H](C)C[C@H]2C)O[C@@]12CC[C@@](C)([C@H]1CC[C@](O)(CC)[C@H](C)O1)O2 [FLC-00339-1 Na]	11.1	4.9	26.9	2.0	4.38	12.4	16.1	3.4	54.5	17.1	3.2	10.8	5.0	17.5	3.1	0.9	26.7	2.04	2.27	24.0	
CC[C@@H](C(=O)[C@@H](C)[C@@H](O)[C@H](C)[C@@H]1O[C@@H]([C@@H](CC)C(=O)O)CC[C@@H]1C)[C@H]1O[C@]2(C=C[C@@H](NC(=O)NC(=O)C(Cl)(Cl)Cl)[C@]3(CC[C@@](C)([C@H]4CC[C@](O)(CC)[C@H](C)O4)O3)O2)[C@H](C)C[C@@H]1C [FLC-00367-1]	666	7.6	5920	0.9	682	7.4	689	7.4	5080	3220	1.6	940	5.4	368	13.8	0.8	19.1	266	322	15.7	

— US20240294541A1, “COMPOUNDS CONSTITUTING C20-MODIFIED SALINOMYCIN DERIVATIVES, A METHOD FOR OBTAINING THE SAME, A COMPOSITION CONTAINING THE SAME AND A USE OF SAID COMPOUNDS” (FILECLO SPOLKA Z OGRANICZONA ODPOWIEDZIALNOSCIA, priority 2021, published 2024)
